Patent US7452865B2, “Antagonistic analogs of GH RH (2003)” (The Administrare's of the Tulane Educational Fund, priority 2004, dated 2008)
Square brackets hold non-standard residues; d marks the D form. Peptide text beside a SMILES is read from it. * marks the point of attachment. Bpa = N[C@@H](Cc1ccc(C(=O)c2ccccc2)cc1)C(=O)O; Phe(4-Cl) = N[C@@H](Cc1ccc(Cl)cc1)C(=O)O; hArg = N=C(N)NCCCC[C@H](N)C(=O)O; Nle = CCCC[C@H](N)C(=O)O; Abu = CC[C@H](N)C(=O)O; PhAc = O=C(Cc1ccccc1)*

Tested on: hGH-RH(1-29)NH2 induced GH release
Assay: Inhibition of GH release in superfused rat pituitary system
Assay type: cell-based
Conditions: for GH response (% of control) 0 min / GH response (% of control) 30 min / GH response (% of control) 60 min / GH response (% of control) 90 min / GH response (% of control) 120 min: antagonist 30 nM; for GH response (% of control) 0 min: 1 nM hGH-RH(1-29)NH2 at 0 min; for GH response (% of control) 30 min: 1 nM hGH-RH(1-29)NH2 at 30 min; for GH response (% of control) 60 min: 1 nM hGH-RH(1-29)NH2 at 60 min; for GH response (% of control) 90 min: 1 nM hGH-RH(1-29)NH2 at 90 min; for GH response (% of control) 120 min: 1 nM hGH-RH(1-29)NH2 at 120 min
Procedure: The analogs were tested in vitro in a test described earlier (S. Vigh and A. V Schally, Peptides 5:241-[…], 1984) with modification (Z. Rekasi and A. V. Schally, P.N.A.S. 90:2146-2149, 1993).
Briefly, the cells are preincubated with peptides for 9 minutes (3 mL) at various concentrations. Immediately after the incubation, 1 nM hGH-RH(1-29)NH2 is administered for 3 minutes (1 mL) 10 minute response). To check the duration of the antagonistic effect of the analogue, 1 nM hGH-RH(1-29)NH2 is applied 30, 60, 90, and 120 minutes later for 3 minutes [30, 60, 90, 120 min responses]. Net integral values of the GH responses are evaluated. GH responses are compared to and expressed as percent of the original GH response induced by 1 nM GH-RH(1-29)NH2 The effect of the new antagonists are compared to that of [Ac-Tyr^1, D-Arg^2]hGH-RH(1-29)NH2, the “Standard antagonist”.
Rat GH levels in aliquots of undiluted and diluted superfusion samples were measured by double-antibody radioimmunoassay using materials supplied by the National Hormone and Pituitary Program, Baltimore, Md. The results of RIA were analyzed with a computer program developed in our institute (V. Csernus and A. V. Schally, in Neuroendocrine Research Methods, Harwood Academic (Greenstein, B. D. ed., London, pp. 71-109, 1991), hereby incorporated by reference.

Compound	GH response (% of control) 0 min	GH response (% of control) 30 min	GH response (% of control) 60 min	GH response (% of control) 90 min	GH response (% of control) 120 min	endocrine antagonistic potency: inhibition of the GH release stimulated by hGH-RH(1-29)NH2 (in words) (general statement, in vitro and in vivo)
[PhAc-Tyr^1, D-Arg^2, Phe(pCl)^6, Har^9, Tyr(Me)^10, Aib^15, Nle^27, D-Arg^28, Har^29]hGH-RH(1-29)NHEt [Peptide 49]	83 % of control	76 % of control	90 % of control	87 % of control	120 % of control	–
[PhAc-Tyr^1, D-Arg^2, Phe(pCl)^6, Arg^9, His^10, Abu^15, Nle^27, D-Arg^28, Har^29]hGH-RH(1-29)NH2 [Peptide 32]	28 % of control	43 % of control	69 % of control	76 % of control	–	–
CCCC[C@H](NC(=O)[C@@H](NC(=O)[C@H](CC(=O)O)NC(=O)[C@H](CCC(N)=O)NC(=O)[C@H](CC(C)C)NC(=O)[C@H](CC(C)C)NC(=O)[C@H](CCCCN)NC(=O)[C@H](CCCNC(=N)N)NC(=O)[C@H](C)NC(=O)[C@H](CO)NC(=O)[C@H](CC(C)C)NC(=O)[C@H](CCC(N)=O)NC(=O)[C@H](CC)NC(=O)[C@H](CC(C)C)NC(=O)[C@@H](NC(=O)[C@H](CCCCN)NC(=O)[C@H](CCCNC(=N)N)NC(=O)[C@H](Cc1ccc(C(=O)c2ccccc2)cc1)NC(=O)[C@H](CCCCNC(=N)N)NC(=O)[C@H](CC(N)=O)NC(=O)[C@@H](NC(=O)[C@H](Cc1ccc(O)cc1)NC(=O)[C@@H](NC(=O)[C@H](C)NC(=O)[C@H](CC(=O)O)NC(=O)[C@@H](CCCNC(=N)N)NC(=O)[C@H](Cc1c[nH]cn1)NC(=O)Cc1ccccc1)[C@@H](C)CC)[C@@H](C)O)C(C)C)[C@@H](C)CC)C(=O)N[C@H](CCCNC(=N)N)C(=O)N[C@@H](CCCCNC(=N)N)C(N)=O [Peptide 42, [PhAc-His^1, D-Arg^2, Tyr^6, Har^9, Bpa^10, Abu^15, Nle^27, D-Arg^28, Har^29]hGH-RH(1-29)NH2] (PhAc-H[dR]DAIYTN[hArg][Bpa]RKVL[Abu]QLSARKLLQDI[Nle][dR][hArg]-NH2)	52 % of control	7 % of control	9 % of control	8 % of control	13 % of control	high endocrine antagonistic potencies
[PhAc-Tyr^1, D-Arg^2, Phe(pCl)^6, Cit^8, Cit^9, Abu^15, Nle^27, Har^28, D-Arg^29]hGH-RH(1-29)NH2 [Peptide 24]	56 % of control	13 % of control	18 % of control	34 % of control	60 % of control	–
[PhAc-Tyr^1, D-Arg^2, Phe(pCl)^6, Har^9, Tyr(Me)^10, Abu^15, Nle^27, D-Arg^28, Agm^29]hGH-RH(1-29) [Peptide 52]	86 % of control	13 % of control	45 % of control	26 % of control	55 % of control	–
CCCC[C@H](NC(=O)[C@@H](NC(=O)[C@H](CC(=O)O)NC(=O)[C@H](CCC(N)=O)NC(=O)[C@H](CC(C)C)NC(=O)[C@H](CC(C)C)NC(=O)[C@H](CCCCN)NC(=O)[C@H](CCCNC(=N)N)NC(=O)[C@H](C)NC(=O)[C@H](CO)NC(=O)[C@H](CC(C)C)NC(=O)[C@H](CCC(N)=O)NC(=O)[C@H](CC)NC(=O)[C@H](CC(C)C)NC(=O)[C@@H](NC(=O)[C@H](CCCCNC(=N)N)NC(=O)[C@H](CCCNC(=N)N)NC(=O)[C@H](Cc1ccc(O)cc1)NC(=O)[C@H](CCCNC(=N)N)NC(=O)[C@H](CC(N)=O)NC(=O)[C@@H](NC(=O)[C@H](Cc1ccc(Cl)cc1)NC(=O)[C@@H](NC(=O)[C@H](C)NC(=O)[C@H](CC(=O)O)NC(=O)[C@@H](CCCNC(=N)N)NC(=O)[C@H](Cc1ccc(O)cc1)NC(=O)Cc1ccccc1)[C@@H](C)CC)[C@@H](C)O)C(C)C)[C@@H](C)CC)C(=O)N[C@H](CCCNC(=N)N)C(=O)N[C@@H](CCCCNC(=N)N)C(N)=O [Peptide 43, [PhAc-Tyr^1, D-Arg^2, Phe(pC)^6, Arg^9, Har^12, Abu^15, Nle^27, D-Arg^28, Har^29]hGH-RH(1-29)NH2] (PhAc-Y[dR]DAI[Phe(4-Cl)]TNRYR[hArg]VL[Abu]QLSARKLLQDI[Nle][dR][hArg]-NH2)	82 % of control	74 % of control	102 % of control	72 % of control	51 % of control	–
[PhAc-Tyr^1, D-Arg^2, Phe(pCl)^6, Amp^9, Abu^15, Nle^27, D-Arg^28, Har^29]hGH-RH(1-29)NH2 [Peptide 68]	37 % of control	22 % of control	33 % of control	29 % of control	33 % of control	–
